{
  "source": "ChEMBL document CHEMBL1129129",
  "about": "“Modelisation, synthesis and antiviral evaluation of new 2,3-disubstituted thiazolidinone nucleoside analogues” (Bioorg Med Chem Lett, 1996)",
  "key": {"Anas sp. [1]": {"test_system": "Anas sp.", "test": "Compound was tested for its antiviral activity against hepatitis B virus(DHBV) in duck fetal hepatocytes culture", "format": "functional, organism-based", "conditions": "Hepatocyte"}, "Anas sp. [2]": {"test_system": "Anas sp.", "test": "Compound was tested for its cytotoxicity against duck hepatitis B virus in duck fetal hepatocytes culture", "format": "functional", "conditions": "Hepatocyte"}, "MT4 [3]": {"test_system": "MT4", "test": "Compound was tested for its cytotoxicity against HIV-1 infected MT-4 cell lines", "format": "functional", "conditions": "Homo sapiens"}, "MT4 [4]": {"test_system": "MT4", "test": "Compound was tested to inhibit HIV-1 replication in MT-4 cell lines; value may range from 1 - 10", "format": "functional, cell-based", "conditions": "Homo sapiens"}, "MT4 [5]": {"test_system": "MT4", "test": "Compound was tested to inhibit HIV-1 replication in MT-4 cell lines", "format": "functional, cell-based", "conditions": "Homo sapiens"}, "MT4 [6]": {"test_system": "MT4", "test": "Compound was tested to inhibit HIV-1 replication in MT-4 cell lines; value may range from 5 - 15", "format": "functional, cell-based", "conditions": "Homo sapiens"}},
  "data": [
    {"smiles": "Nc1nc(=O)n(CCN2C(=O)CSC2CO)cc1F", "note": "(stereo not drawn)", "values": [
      {"measurement": "IC50", "setting": "Anas sp. [1]", "result": 2, "unit": "µM"},
      {"measurement": "CC50", "setting": "Anas sp. [2]", "result": 150, "unit": "µM"},
      {"measurement": "CC50", "setting": "MT4 [3]", "result": 100, "unit": "µM"},
      {"measurement": "IC50", "setting": "MT4 [4]", "result": 10, "unit": "µM"}
    ]},
    {"smiles": "Nc1ccn(CCN2C(=O)CSC2COC(=O)c2ccccc2)c(=O)n1", "note": "(stereo not drawn)", "values": [
      {"measurement": "CC50", "setting": "MT4 [3]", "result": "~100", "unit": "µM"},
      {"measurement": "IC50", "setting": "MT4 [5]", "result": "≥ 100", "unit": "µM"}
    ]},
    {"smiles": "Nc1ccn(CCN2C(=O)CSC2CO)c(=O)n1", "note": "(stereo not drawn)", "values": [
      {"measurement": "IC50", "setting": "Anas sp. [1]", "result": 2, "unit": "µM"},
      {"measurement": "CC50", "setting": "Anas sp. [2]", "result": 100, "unit": "µM"},
      {"measurement": "CC50", "setting": "MT4 [3]", "result": "~300", "unit": "µM"},
      {"measurement": "IC50", "setting": "MT4 [5]", "result": "≥ 300", "unit": "µM"}
    ]},
    {"smiles": "Cc1cn(CCN2C(=O)CSC2CO)c(=O)[nH]c1=O", "note": "(stereo not drawn)", "values": [
      {"measurement": "IC50", "setting": "Anas sp. [1]", "result": 2, "unit": "µM"},
      {"measurement": "CC50", "setting": "Anas sp. [2]", "result": "≥ 200", "unit": "µM"},
      {"measurement": "IC50", "setting": "MT4 [6]", "result": 15, "unit": "µM"},
      {"measurement": "CC50", "setting": "MT4 [3]", "result": 100, "unit": "µM"}
    ]},
    {"smiles": "Nc1nc(=O)n(CCN2C(=O)CSC2COC(=O)c2ccccc2)cc1F", "note": "(stereo not drawn)", "values": [
      {"measurement": "CC50", "setting": "MT4 [3]", "result": 100, "unit": "µM"},
      {"measurement": "IC50", "setting": "MT4 [4]", "result": 10, "unit": "µM"}
    ]},
    {"smiles": "Nc1ncnc2c1ncn2CCN1C(=O)CSC1CO", "note": "(stereo not drawn)", "values": [
      {"measurement": "IC50", "setting": "Anas sp. [1]", "result": 2, "unit": "µM"},
      {"measurement": "CC50", "setting": "Anas sp. [2]", "result": 200, "unit": "µM"},
      {"measurement": "CC50", "setting": "MT4 [3]", "result": 100, "unit": "µM"},
      {"measurement": "IC50", "setting": "MT4 [4]", "result": 10, "unit": "µM"}
    ]},
    {"smiles": "Nc1ccn(C2CS[C@H](CO)O2)c(=O)n1", "note": "(single isomer, unassigned) [LAMIVUDINE]", "values": [
      {"measurement": "IC50", "setting": "Anas sp. [1]", "result": 0.1, "unit": "µM"},
      {"measurement": "CC50", "setting": "Anas sp. [2]", "result": "> 400", "unit": "µM"},
      {"measurement": "CC50", "setting": "MT4 [3]", "result": 100, "unit": "µM"}
    ]}
  ]
}
